In PubChem BioAssay AID1919013 (Molecular Pharmacology Branch, DTP, NCI, 2023) one finds IC50 and viability, T/C data, which are given here for five molecules.

The structures appear in SMILES notation. Where “and” joins values, the source holds several entries; their conditions need not be identical. Equal entries are not always repeated.

For the assay, the system named is LG0703-F498-PDC complex spheroid growth. The assay can be described thus: Anticancer human tumor LG0703-F498-PDC patient-derived lung adenocarcinoma cell line growth inhibition [AhR]. The following applies: for viability, T/C: stronger effect = lower value. The procedure, abridged:
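Spheroids combined tumor cells with HUVEC endothelial cells and human MSCs as stroma. AhR antagonists were paired with standard or investigational drugs, each dosed in half-log steps down from near clinical Cmax, or from 10 microM where Cmax was unknown.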

Where [1] appears, read: curve of first compound, second compound 0.1 µM.
The mark [2] stands for this setting: curve of first compound, second compound 0.316 µM.
The mark [3] stands for this setting: curve of first compound, second compound 1 µM.
Where [4] appears, read: curve of first compound, second compound 3.16 µM.
[5] abbreviates: curve of first compound, second compound 10 µM.
Where [6] appears, read: second compound 0.1 µM, first compound 0.0316 µM.
Where [7] appears, read: second compound 0.1 µM, first compound 0.1 µM.
Setting [8] is: second compound 0.1 µM, first compound 0.316 µM.
The mark [9] stands for this setting: second compound 0.1 µM, first compound 1 µM.
Setting [10] is: second compound 0.316 µM, first compound 0.0316 µM.
The mark [11] stands for this setting: second compound 0.316 µM, first compound 0.1 µM.
Where [12] appears, read: second compound 0.316 µM, first compound 0.316 µM.
The mark [13] stands for this setting: second compound 0.316 µM, first compound 1 µM.
Setting [14] is: second compound 1 µM, first compound 0.0316 µM.
Setting [15] is: second compound 1 µM, first compound 0.1 µM.
The mark [16] stands for this setting: second compound 1 µM, first compound 0.316 µM.
Where [17] appears, read: second compound 1 µM, first compound 1 µM.
Setting [18] is: second compound 3.16 µM, first compound 0.0316 µM.
[19] abbreviates: second compound 3.16 µM, first compound 0.1 µM.
Setting [20] is: second compound 3.16 µM, first compound 0.316 µM.
Setting [21] is: second compound 3.16 µM, first compound 1 µM.
The mark [22] stands for this setting: second compound 10 µM, first compound 0.0316 µM.
The mark [23] stands for this setting: second compound 10 µM, first compound 0.1 µM.
Where [24] appears, read: second compound 10 µM, first compound 0.316 µM.
Setting [25] is: second compound 10 µM, first compound 1 µM.
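Further: luminescence taken as a proxy for viable cell amount.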
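Wherever viability, T/C is given: percent of DMSO vehicle control where 100% means growth equal to vehicle.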

Turning to `CCN(c1cc(-c2ccc(CN3CCOCC3)cc2)cc(C(=O)NCc2c(C)cc(C)[nH]c2=O)c1C)C1CCOCC1` + Cc1ccccc1N=Nc1ccc(NC(=O)c2ccnn2C)c(C)c1, the IC50 was > 3 µM under setting [1]; > 3 µM under setting [2]; > 3 µM under setting [3]; > 3 µM under setting [4]; > 3 µM under setting [5]. In addition, the viability, T/C was 97.8% (second compound 0.1 µM, first compound 0.00949 µM); 104% (second compound 0.1 µM, first compound 0.03 µM); 104% (second compound 0.1 µM, first compound 0.0949 µM); 107% (second compound 0.1 µM, first compound 0.3 µM); 112% (second compound 0.1 µM, first compound 0.949 µM); 118% (second compound 0.1 µM, first compound 3 µM). Further, the viability, T/C was 94.3% (second compound 0.316 µM, first compound 0.00949 µM); 106% (second compound 0.316 µM, first compound 0.03 µM); 95% (second compound 0.316 µM, first compound 0.0949 µM); 100% (second compound 0.316 µM, first compound 0.3 µM); 102% (second compound 0.316 µM, first compound 0.949 µM); 106% (second compound 0.316 µM, first compound 3 µM). Further, the viability, T/C is 97.7% (second compound 1 µM, first compound 0.00949 µM); 93.2% (second compound 1 µM, first compound 0.03 µM); 115% (second compound 1 µM, first compound 0.0949 µM); 92% (second compound 1 µM, first compound 0.3 µM); 97.3% (second compound 1 µM, first compound 0.949 µM); 99.8% (second compound 1 µM, first compound 3 µM). For the same molecule, the viability, T/C reads like this: (second compound 3.16 µM, first compound 0.00949 µM) 95.9%; (second compound 3.16 µM, first compound 0.03 µM) 99.9%; (second compound 3.16 µM, first compound 0.0949 µM) 102%; (second compound 3.16 µM, first compound 0.3 µM) 94.2%; (second compound 3.16 µM, first compound 0.949 µM) 87.1%; (second compound 3.16 µM, first compound 3 µM) 101%. Further, the viability, T/C (second compound 10 µM, first compound 0.00949 µM) was 81.9%; the viability, T/C (second compound 10 µM, first compound 0.03 µM) was 86.1%; the viability, T/C (second compound 10 µM, first compound 0.0949 µM) was 96.4%; the viability, T/C (second compound 10 µM, first compound 0.3 µM) is 86.1%; the viability, T/C (second compound 10 µM, first compound 0.949 µM) is 82.2%; the viability, T/C (second compound 10 µM, first compound 3 µM) is 98.5%.
Turning to `CC1COCCN1c1cc(C2(S(C)(=N)=O)CC2)nc(-c2ccnc3[nH]ccc23)n1` (centres undefined), the viability, T/C is 91% and 100% and 107% (compound 0.0316 µM); 108% and 96.2% and 104% (compound 0.1 µM); 87.9% and 110% and 96.5% (compound 0.316 µM); 97.9% and 98.4% and 97.6% (compound 1 µM); 87.5% and 110% and 95.1% (compound 3.16 µM); 65.4% and 71% and 64.8% (compound 10 µM). Besides, the IC50 (curve of compound) was > 10 µM.
Turning to `O=C(c1cc(Cc2n[nH]c(=O)c3ccccc23)ccc1F)N1CCN(C(=O)C2CC2)CC1` + Cc1cncc(-c2nc(NCCc3c[nH]c4ccccc34)c3ncn(C(C)C)c3n2)c1, the IC50 reads like this: under setting [1], > 10 µM; under setting [2], > 10 µM; under setting [3], > 10 µM; under setting [4], < 0.0316 µM; under setting [5], < 0.0316 µM. Further, the viability, T/C under setting [6] is 105%; the viability, T/C under setting [7] is 98.5%; the viability, T/C under setting [8] is 99.3%; the viability, T/C under setting [9] was 84.1%; the viability, T/C (second compound 0.1 µM, first compound 3.16 µM) was 93.4%; the viability, T/C (second compound 0.1 µM, first compound 10 µM) is 72.5%. Besides, the viability, T/C is, setting by setting: under setting [10], 90.7%; under setting [11], 103%; under setting [12], 95%; under setting [13], 95.5%; (second compound 0.316 µM, first compound 3.16 µM) 89.4%; (second compound 0.316 µM, first compound 10 µM) 80.8%. Also, the viability, T/C is, setting by setting: under setting [14], 108%; under setting [15], 95.9%; under setting [16], 99.8%; under setting [17], 99.4%; (second compound 1 µM, first compound 3.16 µM) 98.3%; (second compound 1 µM, first compound 10 µM) 78.1%. Moreover, the viability, T/C is 40.2% under setting [18]; 43.1% under setting [19]; 51.7% under setting [20]; 46.2% under setting [21]; 40% (second compound 3.16 µM, first compound 3.16 µM); 43% (second compound 3.16 µM, first compound 10 µM). Moreover, the viability, T/C reads like this: under setting [22], 0.8%; under setting [23], 0.83%; under setting [24], 0.8%; under setting [25], 0.79%; (second compound 10 µM, first compound 3.16 µM) 0.66%; (second compound 10 µM, first compound 10 µM) 1.47%.
Turning to `Nc1ncn(C2CC(O)C(CO)O2)c(=O)n1` (centres undefined) + Cc1ccccc1N=Nc1ccc(NC(=O)c2ccnn2C)c(C)c1, the IC50 is > 1 µM under setting [1]; > 1 µM under setting [2]; > 1 µM under setting [3]; > 1 µM under setting [4]; > 1 µM under setting [5]. In addition, the viability, T/C runs as follows: (second compound 0.1 µM, first compound 0.00316 µM) 96.5%; (second compound 0.1 µM, first compound 0.01 µM) 99.1%; under setting [6], 94.8%; under setting [7], 85%; under setting [8], 83.2%; under setting [9], 83.9%. Also, the viability, T/C by setting is: (second compound 0.316 µM, first compound 0.00316 µM) 97%; (second compound 0.316 µM, first compound 0.01 µM) 93.6%; under setting [10], 92.1%; under setting [11], 90.1%; under setting [12], 76.5%; under setting [13], 87%. In addition, the viability, T/C was 86.2% (second compound 1 µM, first compound 0.00316 µM); 101% (second compound 1 µM, first compound 0.01 µM); 88% under setting [14]; 89.7% under setting [15]; 75.4% under setting [16]; 92.6% under setting [17]. Also, the viability, T/C (second compound 3.16 µM, first compound 0.00316 µM) is 95.2%; the viability, T/C (second compound 3.16 µM, first compound 0.01 µM) is 97.6%; the viability, T/C under setting [18] was 87%; the viability, T/C under setting [19] is 75%; the viability, T/C under setting [20] is 79.4%; the viability, T/C under setting [21] was 65.5%. Moreover, the viability, T/C runs as follows: (second compound 10 µM, first compound 0.00316 µM) 85.9%; (second compound 10 µM, first compound 0.01 µM) 90.9%; under setting [22], 86.6%; under setting [23], 72.4%; under setting [24], 74.2%; under setting [25], 68.3%.
Regarding `CC[C@@]1(O)C(=O)OCc2c1cc1n(c2=O)Cc2cc3c(CN(C)C)c(O)ccc3nc2-1`, the viability, T/C reads like this: (compound 0.000316 µM) 104% and 108% and 106%; (compound 0.001 µM) 112% and 105% and 93.5%; (compound 0.00316 µM) 100% and 102% and 95.9%; (compound 0.01 µM) 90.5% and 93.7% and 90%; (compound 0.0316 µM) 85.8% and 111% and 87.9%; (compound 0.1 µM) 68.1% and 69.4% and 73.8%. The IC50 (curve of compound) was > 0.1 µM.
